Source: EP0375451A2, “Compounds having a renin-inhibiting activity” (BEECHAM GROUP PLC, priority 1988, dated 1990)
Counter-ions that a name gives are not always drawn.

Molecular target: T1, human renin (Homo sapiens, UniProt P00797)
T1 construct: from tissue; host or cells: human plasma from blood of healthy volunteers
T1 sequence (P00797 67-406): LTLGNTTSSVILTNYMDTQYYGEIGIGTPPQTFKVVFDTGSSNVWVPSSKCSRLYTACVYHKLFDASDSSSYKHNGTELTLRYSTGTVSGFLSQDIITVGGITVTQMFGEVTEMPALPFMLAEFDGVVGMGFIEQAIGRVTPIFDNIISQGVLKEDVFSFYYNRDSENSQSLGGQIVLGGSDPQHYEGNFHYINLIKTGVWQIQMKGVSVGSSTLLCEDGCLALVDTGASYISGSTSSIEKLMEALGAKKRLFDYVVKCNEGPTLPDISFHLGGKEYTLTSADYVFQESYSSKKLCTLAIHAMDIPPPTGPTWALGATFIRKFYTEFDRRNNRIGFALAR
Assay: In vitro human renin inhibition (renin activity in human plasma, angiotensin I radioimmunoassay)
Type: biochemical
Settings: not given
Description: In vitro human renin inhibition
Renin inhibitory activity was estimated as the percentage change in renin activity in human plasma in the presence and absence of compound. The source of plasma was blood taken from healthy volunteers. Renin activity was defined by the difference in angiotensin I levels between two halves of a sample, one incubated at 37^o and the other at 4^o for 2h. Angiotensin I levels were measured using a ¹²⁵I- angiotensin I radioimmunoassay kit (NEN/DuPont, Stevenage). Results were calculated as the mean of at least two, duplicate determinations and IC₅₀ values were calculated by linear regression analysis of at least three concentrations of compound.

| SMILES | IC50 [nM] |
| --- | --- |
| CC(=O)NCCNC(=O)C[C@H](O)[C@H](CC1CCCCC1)NC(=O)[C@H](CC(C)C)NC(=O)[C@H](Cc1ccccc1)NC(=O)CC1CS(=O)(=O)c2ccccc21 (stereo partly shown) [Example E6] | 87 |
| CC(C)C[C@H](NC(=O)[C@H](Cc1ccccc1)NC(=O)CCn1c(=O)[nH]c2ccccc21)C(=O)N[C@@H](CC1CCCCC1)[C@@H](O)CC(=O)NCCCn1ccnc1 [Example E41, (2,3-Dihydro-2-oxo-1H-benzimidazole-1-propanoyl)-Phe-Leu-ACHPA 3-(1-imidazolyl)propylamide .0.5CHCl₃] | 43 |

Same assay, conditions: human plasma from healthy volunteers; angiotensin I difference between 37° and 4° incubation for 2h; linear regression of at least three concentrations; read-out: IC₅₀

| SMILES | IC50 [nM] |
| --- | --- |
| CC(C)C[C@H](NC(=O)[C@H](Cc1ccccc1)NC(=O)CC1CS(=O)(=O)c2ccccc21)C(=O)N[C@@H](CC1CCCCC1)[C@@H](O)CC(=O)NCCCn1ccnc1 (stereo partly drawn) [El (a), (2,3-Dihydro-1,1-dioxobenzothiophene-3-yl)acetyl-Phe-Leu-ACHPA 3-(1-imidazolyl)propylamide .H₂O] | 15 |
| CC(C)C[C@H](NC(=O)[C@H](Cc1ccccc1)NC(=O)CC1CS(=O)(=O)c2ccccc21)C(=O)N[C@@H](CC1CCCCC1)[C@@H](O)CC(=O)NCCCN1CCCC1=O (stereo partly drawn) [Example E3, (2,3-Dihydro-1,1-dioxobenzothiophene-3-yl)acetyl-Phe-Leu-ACHPA 3-(2-oxopyrrolidin-1-yl) propylamide] | 27 |
| CC(C)C[C@H](NC(=O)[C@H](Cc1ccccc1)NC(=O)CC1COc2ccc(CN)cc21)C(=O)N[C@@H](CC1CCCCC1)[C@@H](O)CC(=O)NCCCn1ccnc1 (stereo partly drawn) [Example E13, (5-(Aminomethyl)-2,3-dihydrobenzofuran-3-yl)acetyl-Phe-Leu-ACHPA 3-(1-imidazolyl)propylamide .2(CF₃CO₂H).H₂O] | 32 |
| CC(C)C[C@H](NC(=O)[C@H](Cc1ccccc1)NC(=O)CC1CS(=O)(=O)c2ccccc21)C(=O)N[C@@H](CC1CCCCC1)[C@@H](O)CC(=O)NCCCCn1ccnc1 (stereo partly drawn) [Example E14, (2,3-Dihydro-1,1-dioxobenzothiophene-3-yl)acetyl-Phe-Leu-ACHPA 4-(1-imidazolyl)butylamide .HCl.2H₂O] | 37 |
| COC(=O)CCCCNC(=O)C[C@H](O)[C@H](CC1CCCCC1)NC(=O)[C@H](CC(C)C)NC(=O)[C@H](Cc1ccccc1)NC(=O)CC1CS(=O)(=O)c2ccccc21 (stereo partly drawn) [Example E18, (2,3-Dihydro-1,1-dioxobenzothiophene-3-yl)acetyl-Phe-Leu-ACHPA-NH(CH₂)CO₂Me.0.5H₂O] | 30 |
| CC(C)C[C@H](NC(=O)[C@H](Cc1ccccc1)NC(=O)CC1CS(=O)(=O)c2ccccc21)C(=O)N[C@@H](CC1CCCCC1)[C@@H](O)CC(=O)NCCCCC(=O)O (stereo partly drawn) [Example E19, (2,3-Dihydro-1,1-dioxobenzothiophene-3-yl)acetyl-Phe-Leu-ACHPA-NH(CH₂)₄CO₂H] | 45 |
| CC(C)C[C@H](NC(=O)[C@H](Cc1ccccc1)NC(=O)CC1CS(=O)(=O)c2ccccc21)C(=O)N[C@@H](CC1CCCCC1)[C@@H](O)CC(=O)NCCN1CCN(C)CC1 (stereo partly drawn) [Example E22, (2,3-Dihydro-1,1-dioxobenzothiophene-3-yl)acetyl-Phe-Leu-ACHPA 2-(4-methylpiperazin-1-yl)ethylamide .2.5H₂O] | 95 |

Next, values leading:

| IC50 [nM] | SMILES |
| --- | --- |
| 12 | CC(C)C[C@H](NC(=O)[C@H](Cc1ccccc1)NC(=O)CCCC1Cc2ccc(N)cc2S1(=O)=O)C(=O)N[C@@H](CC1CCCCC1)[C@@H](O)CC(=O)NCCCn1ccnc1 (stereo partly drawn) [Example E34a, 4-(6-Amino-2,3-dihydro-1,1-dioxobenzothiophene-2-yl)butanoyl-Phe-Leu-ACHPA 3-(1-imidazolyl)propylamide] |
| 44 | CC(C)C[C@H](NC(=O)[C@H](Cc1ccccc1)NC(=O)CC1CS(=O)(=O)c2cc(CN)ccc21)C(=O)N[C@@H](CC1CCCCC1)[C@@H](O)CC(=O)NCCCC(=O)O (stereo partly drawn) [Example E37, (6-(Aminomethyl)-2,3-dihydro-1,1-dioxobenzothiophene-3-yl)acetyl-Phe-Leu-ACHPA-NH(CH₂)₃CO₂H .CF₃CO₂H] |
| 12 | CC(C)C[C@H](NC(=O)[C@H](Cc1ccccc1)NC(=O)CC1CS(=O)(=O)c2ccc(CN)cc21)C(=O)N[C@@H](CC1CCCCC1)[C@@H](O)CC(=O)NCCCn1ccnc1 (stereo partly drawn) [Example E43, (5-(Aminomethyl)-2,3-dihydro-1,1-dioxobenzothiophene-3-yl)acetyl-Phe-Leu-ACHPA 3-(1-imidazolyl)propylamide .3CF₃CO₂H.H₂O] |
| 48 | CC(C)C[C@H](NC(=O)[C@H](Cc1ccccc1)NC(=O)CC1COc2ccc(CNCC(=O)O)cc21)C(=O)N[C@@H](CC1CCCCC1)[C@@H](O)CC(=O)NCCCn1ccnc1 (stereo partly drawn) [Example E44, (5- (Carboxymethylaminomethyl)-2,3-dihydrobenzofuran-3-yl)acetyl-Phe-Leu-ACHPA 3-(1-imidazolyl)propylamide .3(CF₃CO₂H)] |
| 14 | CC(C)C[C@H](NC(=O)[C@H](Cc1ccccc1)NC(=O)CCCC1Cc2ccccc2S1(=O)=O)C(=O)N[C@@H](CC1CCCCC1)[C@@H](O)CC(=O)NCCCn1ccnc1 (stereo partly drawn) [Example E50a, 4-(2,3-Dihydro-1,1-dioxobenzothiophene-2-yl)butanoyl-Phe-Leu-ACHPA 3-(1-imidazolyl)propylamide] |
| 20 | CC(C)C[C@H](NC(=O)[C@H](Cc1ccccc1)NC(=O)CC1CS(=O)(=O)c2cc(CN)ccc21)C(=O)N[C@@H](CC1CCCCC1)[C@@H](O)CC(=O)NCCCn1ccnc1 (stereo partly drawn) [Example E52, (6-(Aminomethyl)-2,3-dihydro-1,1-dioxobenzothiophene-3-yl)acetyl-Phe-Leu-ACHPA 3-(1-imidazolyl)propylamide .3(CF₃CO₂H)] |

Same assay, conditions: read-out: IC₅₀; human plasma from healthy volunteers; angiotensin I difference between 37° and 4° incubation for 2h; linear regression of at least three concentrations

| SMILES | IC50 [nM] |
| --- | --- |
| CC(C)C[C@H](NC(=O)[C@H](Cc1ccccc1)NC(=O)CC1CS(=O)(=O)c2cc(CNC(=O)OC(C)(C)C)ccc21)C(=O)N[C@@H](CC1CCCCC1)[C@@H](O)CC(=O)NCCCn1ccnc1 (stereo partly shown) [Example E51] | 53 |
